This passage reports inhibition results from patent US6150385A, “1,3,4-thiadiazoles useful for the treatment of CMV infections” (Pharmacia & Upjohn Company, priority 1999, dated 2000).

Structures are written as SMILES.

The target in the assay is T1, HCMV polymerase (Human cytomegalovirus, UniProt P08546).
T1 construct: made in house; host or cells: SF-9 insect cells infected with recombinant baculovirus
T1 sequence (P08546 whole entry): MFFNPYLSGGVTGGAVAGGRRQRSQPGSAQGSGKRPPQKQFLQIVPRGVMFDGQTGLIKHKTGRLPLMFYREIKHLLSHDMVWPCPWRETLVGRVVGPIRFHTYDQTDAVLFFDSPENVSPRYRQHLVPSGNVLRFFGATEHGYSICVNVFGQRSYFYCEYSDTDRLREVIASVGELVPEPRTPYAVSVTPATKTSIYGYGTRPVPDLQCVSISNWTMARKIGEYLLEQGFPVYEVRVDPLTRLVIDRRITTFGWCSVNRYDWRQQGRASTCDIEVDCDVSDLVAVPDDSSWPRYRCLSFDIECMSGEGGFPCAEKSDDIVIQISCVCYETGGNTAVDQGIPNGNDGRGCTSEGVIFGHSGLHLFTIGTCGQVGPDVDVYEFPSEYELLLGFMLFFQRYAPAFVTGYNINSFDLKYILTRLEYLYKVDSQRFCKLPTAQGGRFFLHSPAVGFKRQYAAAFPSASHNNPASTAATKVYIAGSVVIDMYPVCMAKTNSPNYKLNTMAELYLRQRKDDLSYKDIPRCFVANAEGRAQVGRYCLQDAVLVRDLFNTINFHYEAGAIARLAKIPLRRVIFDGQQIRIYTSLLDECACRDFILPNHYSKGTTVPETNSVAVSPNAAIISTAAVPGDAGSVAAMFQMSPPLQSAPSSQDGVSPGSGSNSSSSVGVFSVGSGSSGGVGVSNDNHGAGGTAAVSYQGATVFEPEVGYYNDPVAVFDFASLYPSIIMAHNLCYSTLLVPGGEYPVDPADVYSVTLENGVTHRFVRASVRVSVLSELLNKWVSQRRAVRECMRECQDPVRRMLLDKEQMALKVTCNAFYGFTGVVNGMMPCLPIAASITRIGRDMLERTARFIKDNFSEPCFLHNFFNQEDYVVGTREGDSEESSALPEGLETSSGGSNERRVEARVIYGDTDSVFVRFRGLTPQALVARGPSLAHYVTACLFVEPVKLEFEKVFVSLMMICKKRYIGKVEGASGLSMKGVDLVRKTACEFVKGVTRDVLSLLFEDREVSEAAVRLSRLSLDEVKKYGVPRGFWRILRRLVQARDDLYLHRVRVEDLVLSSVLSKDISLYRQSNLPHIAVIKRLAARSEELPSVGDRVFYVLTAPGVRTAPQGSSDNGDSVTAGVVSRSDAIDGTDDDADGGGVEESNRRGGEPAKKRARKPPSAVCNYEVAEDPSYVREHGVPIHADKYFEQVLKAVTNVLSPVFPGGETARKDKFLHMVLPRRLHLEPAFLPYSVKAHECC
Put plainly: HCMV polymerase assay (scintillation proximity assay). Format: biochemical. The settings on record: percentage of inhibition at 25 μM concentration in CMV polymerase assay. In short, it runs like this:
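Values are percent inhibition at 25 μM, measured by scintillation proximity after capture of biotinylated poly(dA)-oligo(dT) (6 nM) extended with 90 nM 3H-dTTP. Recombinant SF-9-derived enzyme reacted 30 min at 25 or 37 °C in HEPES pH 7.5/KCl/MgCl2/BSA buffer, ±2 mM CHAPS, before EDTA termination.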
On the technique in general: Scintillation proximity formats need no separation of bound from free tracer.
As for `CC(C)(C)CNc1nnc(NC(=O)c2c(Cl)cccc2Cl)s1` [compound 392, 2,6-dichloro-N-[5-(neopentylamino)-1,3,4-thiadiazol-2-yl]benzamide], the inhibition at 25 µM amounted to 26.2%.

As to `Cc1ccc(C(=O)Nc2nnc(NCCNc3ccccc3)s2)cc1` [compound 393, N-{5-[(2-anilinoethyl)amino]-1,3,4-thiadiazol-2-yl}-4-methylbenzamide], the inhibition at 25 µM was found to be 26.1%.

In turn, `COc1ccccc1C(=O)Nc1nnc(NCCNc2ccccc2)s1` [compound 394, N-{5-[(2-anilinoethyl)amino]-1,3,4-thiadiazol-2-yl}-2-methoxybenzamide] registered an inhibition at 25 µM of 26%.

In the case of `Cc1ccc(C(=O)Nc2nnc(NCCCN3CCCC3=O)s2)cc1` [compound 395, 4-methyl-N-(5-{[3-(2-oxo-1-pyrrolidinyl)propyl]amino}-1,3,4-thiadiazol-2-yl)benzamide], the inhibition at 25 µM was 25.9%.

`CC(C)c1cc(C(C)C)c(C(=O)Nc2nnc(NCCc3cccs3)s2)c(C(C)C)c1` [compound 396, 2,4,6-triisopropyl-N-(5-{[2-(2-thienyl)ethyl]amino}-1,3,4-thiadiazol-2-yl)benzamide] came in with an inhibition at 25 µM of 25.9%.

For `O=C(/C=C/c1ccccc1Cl)Nc1nnc(NCCN2CCCC2)s1` [compound 397, (E)-3-(2-chlorophenyl)-N-(5-{[2-(1-pyrrolidinyl)ethyl]amino}-1,3,4-thiadiazol-2-yl)-2-propenamide], the inhibition at 25 µM turned out to be 25.9%.

In turn, `NS(=O)(=O)c1ccc(CNc2nnc(NC(=O)c3ccc(C(F)(F)F)cc3)s2)cc1` [compound 398, N-(5-{[4-(aminosulfonyl)benzyl]amino}-1,3,4-thiadiazol-2-yl)-4-(trifluoromethyl)benzamide] gave an inhibition at 25 µM of 25.9%.

Take `CC(C)c1cc(C(C)C)c(C(=O)Nc2nnc(NCc3cccnc3)s2)c(C(C)C)c1` [compound 399, 2,4,6-triisopropyl-N-{5-[(3-pyridinylmethyl)amino]-1,3,4-thiadiazol-2-yl}benzamide]: the inhibition at 25 µM was determined as 25.8%.

For `CC(=O)NCCNc1nnc(NC(=O)/C=C/c2ccccc2)s1` [compound 400, (E)-N-(5-{[2-(acetylamino)ethyl]amino}-1,3,4-thiadiazol-2-yl)-3-phenyl-2-propenamide], 25 µM produced 25.8% inhibition.

`CC(C)c1cc(C(C)C)c(C(=O)Nc2nnc(NCc3ccc(F)cc3)s2)c(C(C)C)c1` [compound 401, N-{5-[(4-fluorobenzyl)amino]-1,3,4-thiadiazol-2-yl}-2,4,6-triisopropylbenzamide] yielded an inhibition at 25 µM of 25.5%.

The compound `O=C(Nc1nnc(NCc2cccc3ccccc23)s1)c1ccc(I)cc1` [compound 402, 4-iodo-N-{5-[(1-naphthylmethyl)amino]-1,3,4-thiadiazol-2-yl}benzamide] displayed an inhibition at 25 µM of 25.5%.

Regarding `CC1(C)C2CC[C@@H](CNc3nnc(NC(=O)c4cc5ccccc5s4)s3)C1C2` (stereo partly drawn) [compound 403, N-[5-({[(2R)-6,6-dimethylbicyclo[3.1.1]hept-2-yl]methyl}amino)-1,3,4-thiadiazol-2-yl]-1-benzothiophene-2-carboxamide], the inhibition at 25 µM amounted to 25.3%.

For the compound `O=C(Nc1nnc(NC2CCc3ccccc32)s1)c1ccc([N+](=O)[O-])o1` (centres unmarked) [compound 404, N-[5-(2,3-dihydro-1H-inden-1-ylamino)-1,3,4-thiadiazol-2-yl]-5-nitro-2-furamide], 25 µM produced 25.2% inhibition.

With `O=C(Nc1nnc(NCC2CCCO2)s1)c1cc2ccccc2s1` (centres unmarked) [compound 405, N-{5-[(tetrahydro-2-furanylmethyl)amino]-1,3,4-thiadiazol-2-yl}-1-benzothiophene-2-carboxamide], testing at 25 µM gave an inhibition of 25%.

`CCSCCNc1nnc(NC(=O)c2ccc(C(F)(F)F)cc2)s1` [compound 406, N-(5-{[2-(ethylsulfanyl)ethyl]amino}-1,3,4-thiadiazol-2-yl)-4-(trifluoromethyl)benzamide]: the inhibition at 25 µM worked out at 25%.

Regarding `CC(C)(C)OC(=O)CCNc1nnc(NC(=O)c2ccc(C(F)(F)F)cc2)s1` [compound 407, tert-butyl 3-[(5-{[4-(trifluoromethyl)benzoyl]amino}-1,3,4-thiadiazol-2-yl)amino]propanoate], the inhibition at 25 µM was determined as 25%.

Take `O=C(Nc1nnc(NCCNc2ccccc2)s1)c1ccc(Cl)c(Cl)c1` [compound 408, N-{5-[(2-anilinoethyl)amino]-1,3,4-thiadiazol-2-yl}-3,4-dichlorobenzamide]: the inhibition at 25 µM amounted to 24.9%.

With `CC(C)c1cc(C(C)C)c(C(=O)Nc2nnc(NCC3CCCCC3)s2)c(C(C)C)c1` [compound 409, N-{5-[(cyclohexylmethyl)amino]-1,3,4-thiadiazol-2-yl}-2,4,6-triisopropylbenzamide], the inhibition at 25 µM was 24.9%.

The compound `CCCCCCCCCCCNc1nnc(NC(=O)c2c(Cl)cccc2Cl)s1` [compound 410, 2,6-dichloro-N-[5-(undecylamino)-1,3,4-thiadiazol-2-yl]benzamide] showed an inhibition at 25 µM of 24.9%.

In the case of `O=C(Nc1nnc(NCCc2ccccc2)s1)c1cccc([N+](=O)[O-])c1` [compound 411, 3-nitro-N-[5-(phenethylamino)-1,3,4-thiadiazol-2-yl]benzamide], 25 µM produced 24.8% inhibition.

With `CC(=O)NCCNc1nnc(NC(=O)c2cc3ccccc3s2)s1` [compound 412, N-(5-{[2-(acetylamino)ethyl]amino}-1,3,4-thiadiazol-2-yl)-1-benzothiophene-2-carboxamide], the inhibition at 25 µM came to 24.7%.

Compound `O=C(Nc1nnc(NCCCCc2ccccc2)s1)c1cccc([N+](=O)[O-])c1` [compound 413, 3-nitro-N-{5-[(4-phenylbutyl)amino]-1,3,4-thiadiazol-2-yl}benzamide] showed an inhibition at 25 µM of 24.7%.

`COc1ccccc1C(=O)Nc1nnc(NCc2ccc3c(c2)OCO3)s1` [compound 414, N-{5-[(1,3-benzodioxol-5-ylmethyl)amino]-1,3,4-thiadiazol-2-yl}-2-methoxybenzamide] came in with an inhibition at 25 µM of 24.7%.

Regarding `O=C(Nc1nnc(NCCc2ccccc2)s1)c1ccc(I)cc1` [compound 415, 4-iodo-N-[5-(phenethylamino)-1,3,4-thiadiazol-2-yl]benzamide], the inhibition at 25 µM was 24.6%.

In the case of `O=C(Nc1nnc(NCc2ccc(Cl)c(Cl)c2)s1)c1ccc(F)cc1F` [compound 416, N-{5-[(3,4-dichlorobenzyl)amino]-1,3,4-thiadiazol-2-yl}-2,4-difluorobenzamide], the inhibition at 25 µM is 24.5%.

Compound `O=C(Nc1nnc(NCc2cccnc2)s1)c1ccc(Cl)c(Cl)c1` [compound 417, 3,4-dichloro-N-{5-[(3-pyridinylmethyl)amino]-1,3,4-thiadiazol-2-yl}benzamide] came in with an inhibition at 25 µM of 24.4%.

As to `O=C(Nc1nnc(NC2CCCCCC2)s1)c1ccc(Cl)c(Cl)c1` [compound 418, 3,4-dichloro-N-[5-(cycloheptylamino)-1,3,4-thiadiazol-2-yl]benzamide], at 25 µM the inhibition was 24.4%.

`O=C(Nc1nnc(NCCCN2CCCC2=O)s1)c1ccc(Br)cc1` [compound 419, 4-bromo-N-(5-{[3-(2-oxo-1-pyrrolidinyl)propyl]amino}-1,3,4-thiadiazol-2-yl)benzamide]: testing at 25 µM gave an inhibition of 24.3%.

With `CC(C)(C)OC(=O)CCNc1nnc(NC(=O)c2ccc(Cl)c(Cl)c2)s1` [compound 420, tert-butyl 3-({5-[(3,4-dichlorobenzoyl)amino]-1,3,4-thiadiazol-2-yl}amino)propanoate], at 25 µM the inhibition was 24.1%.

Compound `O=C(/C=C/c1ccccc1)Nc1nnc(NCc2cccnc2)s1` [compound 421, (E)-3-phenyl-N-{5-[(3-pyridinylmethyl)amino]-1,3,4-thiadiazol-2-yl}-2-propenamide] showed an inhibition at 25 µM of 24%.

Compound `CN1CCN(CCCNc2nnc(NC(=O)/C=C/c3ccccc3Cl)s2)CC1` [compound 422, (E)-3-(2-chlorophenyl)-N-(5-{[3-(4-methylpiperazino)propyl]amino}-1,3,4-thiadiazol-2-yl)-2-propenamide] gave an inhibition at 25 µM of 24%.

Take `O=C(Nc1nnc(NCc2ccc(F)cc2)s1)c1ccc(F)cc1F` [compound 423, 2,4-difluoro-N-{5-[(4-fluorobenzyl)amino]-1,3,4-thiadiazol-2-yl}benzamide]: the inhibition at 25 µM was 23.8%.

`CC(C)c1cc(C(C)C)c(C(=O)Nc2nnc(NCc3cccs3)s2)c(C(C)C)c1` [compound 424, 2,4,6-triisopropyl-N-{5-[(2-thienylmethyl)amino]-1,3,4-thiadiazol-2-yl}benzamide] registered an inhibition at 25 µM of 23.6%.

In turn, `O=C(Nc1nnc(NCc2cccs2)s1)c1ccc(I)cc1` [compound 425, 4-iodo-N-{5-[(2-thienylmethyl)amino]-1,3,4-thiadiazol-2-yl}benzamide] yielded an inhibition at 25 µM of 23.5%.

Compound `CC(C)(C)OC(=O)CCNc1nnc(NC(=O)/C=C/c2ccccc2Cl)s1` [compound 426, tert-butyl 3-[(5-{[(E)-3-(2-chlorophenyl)-2-propenoyl]amino}-1,3,4-thiadiazol-2-yl)amino]propanoate] displayed an inhibition at 25 µM of 23.5%.

Turning to `O=C(Nc1nnc(NCCCN2CCCC2=O)s1)c1ccc(F)cc1F` [compound 427, 2,4-difluoro-N-(5-{[3-(2-oxo-1-pyrrolidinyl)propyl]amino}-1,3,4-thiadiazol-2-yl)benzamide], the inhibition at 25 µM amounted to 23.4%.

The compound `COc1ccccc1C(=O)Nc1nnc(NC2CCCc3ccccc32)s1` (centres unmarked) [compound 428, 2-methoxy-N-[5-(1,2,3,4-tetrahydro-1-naphthalenylamino)-1,3,4-thiadiazol-2-yl]benzamide] yielded an inhibition at 25 µM of 23.3%.

`COc1ccccc1C(=O)Nc1nnc(NCCCCc2ccccc2)s1` [compound 429, 2-methoxy-N-{5-[(4-phenylbutyl)amino]-1,3,4-thiadiazol-2-yl}benzamide]: the inhibition at 25 µM came out at 23.2%.

As usually defined, the inhibition is the percentage by which the read-out fell short of the control. High values mean a strong effect, low ones a weak effect.
